Patent publication US12358948B2, “Neurotensinergic agonists and methods of using same preventing or treating pain” (priority 2019, dated 2025)
Where two headings read alike, the source gives them in different places. *1 amine or outer side, *2 acyl side, *3 side chain or, on linkers, in order; H or OH if unused. Where a SMILES comes first, the peptide text is derived from it. Bridges are numbered along the chain shown (N, C = ends). [ ]: non-standard residue; d: D form. ξ: configuration not given here. ξαMeNle(6-ylidene) = CC(CCCC=[*:3])(N[*:1])C(=O)[*:2]; Phe(4-CF3) = N[C@@H](Cc1ccc(C(F)(F)F)cc1)C(=O)O; Bpa = N[C@@H](Cc1ccc(C(=O)c2ccccc2)cc1)C(=O)O; Phe(3-Cl) = N[C@@H](Cc1cccc(Cl)c1)C(=O)O; Phe(4-Br) = N[C@@H](Cc1ccc(Br)cc1)C(=O)O; Phe(4-CN) = N#Cc1ccc(C[C@H](N)C(=O)O)cc1; Ala(cHept) = N[C@@H](CC1CCCCCC1)C(=O)O; dAllylGly = C=CC[C@@H](N)C(=O)O; dTic = O=C(O)[C@H]1Cc2ccccc2CN1; Cha = N[C@@H](CC1CCCCC1)C(=O)O; Cit = NC(=O)NCCC[C@H](N)C(=O)O; AllylGly = C=CC[C@H](N)C(=O)O; S5 = C=CCCC[C@](C)(N)C(=O)O; Dab = NCC[C@H](N)C(=O)O; Nva = CCC[C@H](N)C(=O)O; Dap = NC[C@H](N)C(=O)O

Legend:
hNTS1 receptor = molecular target: T1, hNTS1 receptor (Homo sapiens, UniProt P30989); test: Competitive radioligand binding assay on the hNTS1 receptor; conditions: membranes of CHO-K1 cells expressing hNTS1
T1 construct: membranes prepared from them
T1 sequence (P30989 whole entry): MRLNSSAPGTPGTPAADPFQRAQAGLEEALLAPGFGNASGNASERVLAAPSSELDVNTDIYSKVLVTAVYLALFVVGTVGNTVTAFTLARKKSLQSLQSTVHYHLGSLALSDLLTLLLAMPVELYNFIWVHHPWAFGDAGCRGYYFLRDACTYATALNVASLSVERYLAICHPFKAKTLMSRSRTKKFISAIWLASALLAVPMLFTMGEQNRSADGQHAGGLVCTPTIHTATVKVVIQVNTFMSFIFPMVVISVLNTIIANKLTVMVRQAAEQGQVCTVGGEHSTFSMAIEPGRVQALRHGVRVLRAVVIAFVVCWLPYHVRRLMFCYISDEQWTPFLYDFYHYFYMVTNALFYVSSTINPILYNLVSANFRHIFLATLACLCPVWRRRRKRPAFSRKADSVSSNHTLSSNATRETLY
How it was run: (§1)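 IC50 values came from one-site competition curves against ¹²⁵I-[Tyr³]-NT after 60 min at 25 °C (pH 7.5 Tris, 0.2% BSA), with analogues at 10⁻¹¹–10⁻⁴ M and nonspecific binding set by 10⁻⁵ M NT(8-13). hNTS1 used 15 µg CHO-K1 membranes with […] tracer; hNTS2 used 50 µg 1321N1 membranes with […] tracer.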

hNTS2 receptor = molecular target: T2, hNTS2 receptor (Homo sapiens, UniProt O95665); test: Competitive radioligand binding assay on the hNTS2 receptor; conditions: for IC50: membranes of 1321N1 cells expressing hNTS2; for Selectivity: ratio IC50 for NTS1 : IC50 for NTS2
T2 construct: membranes prepared from them
T2 sequence (O95665 whole entry): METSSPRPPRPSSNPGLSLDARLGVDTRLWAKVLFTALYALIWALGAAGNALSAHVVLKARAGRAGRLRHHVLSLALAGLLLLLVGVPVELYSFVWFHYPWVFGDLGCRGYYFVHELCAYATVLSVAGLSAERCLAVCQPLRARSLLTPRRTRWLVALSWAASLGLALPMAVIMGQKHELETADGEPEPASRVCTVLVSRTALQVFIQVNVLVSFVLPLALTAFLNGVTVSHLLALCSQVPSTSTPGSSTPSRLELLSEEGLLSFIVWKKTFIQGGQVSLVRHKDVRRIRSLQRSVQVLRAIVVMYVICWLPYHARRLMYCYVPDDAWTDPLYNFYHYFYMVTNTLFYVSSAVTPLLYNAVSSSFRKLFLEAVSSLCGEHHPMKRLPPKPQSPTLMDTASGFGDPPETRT
How it was run: as §1

[1] = displacement of 125I-[Tyr3]-NT, read-out: IC50 NTS1
[2] = displacement of 125I-[Tyr3]-NT, read-out: IC50 NTS2 (converted)

Row | Structure (SMILES) | IC50 (hNTS1 receptor; [1]) | IC50 (hNTS2 receptor; [2]) | Selectivity (hNTS2 receptor) | IC50 (hNTS1 receptor; IC50 NTS1, displacement of 125I-[Tyr3]-NT) | IC50 (hNTS2 receptor; IC50 NTS2, displacement of 125I-[Tyr3]-NT)
1 | CC(C)C[C@H](NC(=O)[C@H](Cc1ccc(O)cc1)NC(=O)[C@H]1CC=CC[C@H](N)C(=O)N[C@@H](CCCCN)C(=O)N[C@@H](CCCCN)C(=O)N1)C(=O)O [compound 40, c[G(All)KKG*(All)]YL] (H-[AllylGly]KK[dAllylGly]YL-OH; staple 1-4) | > 100000 nM | 1200 nM | >85 |  | 
2 | CC(C)C[C@H](NC(=O)[C@H](Cc1cccc(Cl)c1)NC(=O)[C@@H]1CC=CC[C@H](N)C(=O)N[C@@H](CCCCN)C(=O)N[C@@H](CCCCN)C(=O)N1)C(=O)O [compound 113, c[G(All)KKG(All)]F(3-chloro)L] (H-[AllylGly]KK[AllylGly][Phe(3-Cl)]L-OH; staple 1-4) | > 100000 nM | 48 nM | >2084 |  | 
3 | CC(C)C[C@H](NC(=O)[C@H](Cc1ccc(C#N)cc1)NC(=O)[C@@H]1CC=CC[C@H](N)C(=O)N[C@@H](CCCCN)C(=O)N[C@@H](CCCCN)C(=O)N1)C(=O)O [compound 118, c[G(All)KKG(All)]F(4-cyano)L] (H-[AllylGly]KK[AllylGly][Phe(4-CN)]L-OH; staple 1-4) | > 100000 nM | 57.8 nM | >1729 |  | 
4 | CC(C)C[C@H](NC(=O)[C@H](Cc1ccc(O)cc1)NC(=O)[C@@H]1CC=CC[C@H](N)C(=O)N[C@H](Cc2c[nH]cn2)C(=O)N[C@@H](CCCCN)C(=O)N1)C(=O)O [compound 84, c[G(All)H*KG(All)]YL] (H-[AllylGly][dH]K[AllylGly]YL-OH; staple 1-4) | > 100000 nM | 646 nM | >154.9 |  | 
5 | CC(C)C[C@H](NC(=O)[C@H]1Cc2ccccc2CN1C(=O)[C@@H]1CC=CC[C@H](N)C(=O)N[C@@H](CCCCN)C(=O)N[C@@H](CCCCN)C(=O)N1)C(=O)O [compound 163, c[G(All)KKG(All)]G(Tic)L] (H-[AllylGly]KK[AllylGly][dTic]L-OH; staple 1-4) | > 100000 nM | 10000 nM | 10 |  | 
6 | NCCCC[C@@H]1NC(=O)[C@H](CCCCN)NC(=O)[C@@H](N)CC=CC[C@@H](C(=O)N[C@@H](Cc2ccc(O)cc2)C(=O)N[C@@H](CC2CCCCCC2)C(=O)O)NC1=O [compound 68, c[G(All)KKG(All)]YA(cycloheptyl)] (H-[AllylGly]KK[AllylGly]Y[Ala(cHept)]-OH; staple 1-4) | > 100000 nM | 6.85 nM | >14 600 |  | 
7 | CC(C)C[C@H](NC(=O)[C@H](Cc1ccc(O)cc1)NC(=O)[C@@H]1CC=CC[C@H](N)C(=O)N[C@@H](CCCCN)C(=O)N[C@@H](CCN)C(=O)N1)C(=O)O [compound 52, c[G(All)KDabG(All)]YL] (H-[AllylGly]K[Dab][AllylGly]YL-OH; staple 1-4) | > 100000 nM | 244 nM | >409.3 |  | 
8 | CC(C)C[C@H](NC(=O)[C@H](Cc1ccc(C(=O)c2ccccc2)cc1)NC(=O)[C@@H]1CC=CC[C@H](N)C(=O)N[C@@H](CCCCN)C(=O)N[C@@H](CCCCN)C(=O)N1)C(=O)O [compound 160, c[G(All)KKG(All)]F (benzoyl)L] (H-[AllylGly]KK[AllylGly][Bpa]L-OH; staple 1-4) |  |  | 2 | > 100000 nM | 115 nM
9 | CC(C)C[C@H](NC(=O)[C@H](Cc1ccc(Br)cc1)NC(=O)C1(C)CCCC=CC[C@H](N)C(=O)N[C@@H](CCCCN)C(=O)N[C@@H](CCCCN)C(=O)N1)C(=O)O (stereo partly drawn) [compound 130, c[G(All)KKG(alpha-Me-(4-pentenyl))]F(4-bromo)L] (H-[AllylGly]KK[ξαMeNle(6-ylidene)][Phe(4-Br)]L-OH; staple 1-4) | > 100000 nM | 10.2 nM | 9843 |  | 
10 | CC(C)C[C@H](NC(=O)[C@H](Cc1ccc(C(F)(F)F)cc1)NC(=O)[C@@H]1CC=CC[C@H](N)C(=O)N[C@@H](CCCCN)C(=O)N[C@@H](CCCCN)C(=O)N1)C(=O)O [compound 111, c[G(All)KKG(All)]F(4-CF3)L] (H-[AllylGly]KK[AllylGly][Phe(4-CF3)]L-OH; staple 1-4) | > 100000 nM | 47.9 nM | >2087 |  | 
11 | CCC[C@H](NC(=O)[C@H](Cc1ccc(O)cc1)NC(=O)[C@@H]1CC=CC[C@H](N)C(=O)N[C@@H](CCCCN)C(=O)N[C@@H](CCCCN)C(=O)N1)C(=O)O [compound 29, c[G(All)KKG(All)]YNva] (H-[AllylGly]KK[AllylGly]Y[Nva]-OH; staple 1-4) | > 100000 nM | 3300 nM | >30.3 |  | 
12 | CC(C)C[C@H](NC(=O)[C@H](Cc1ccc(O)cc1)NC(=O)[C@@H]1CC=CCCC[C@](C)(N)C(=O)N[C@@H](CCCCN)C(=O)N[C@@H](CCCCN)C(=O)N1)C(=O)O [compound 89, c[G(alpha-Me-(4-Pentenyl))KKG(All)]YL] (H-[S5]KK[AllylGly]YL-OH; staple 1-4) | > 100000 nM | 13.2 nM | >7553 |  | 
13 | NCCCC[C@@H]1NC(=O)[C@H](CCCCN)NC(=O)[C@@H](N)CC=CC[C@@H](C(=O)N[C@@H](Cc2ccc(O)cc2)C(=O)N[C@@H](Cc2ccccc2)C(=O)O)NC1=O [compound 32, c[G(All)KKG(All)]YF] (H-[AllylGly]KK[AllylGly]YF-OH; staple 1-4) | > 100000 nM | 453 nM | >220 |  | 
14 | CC(C)C[C@H](NC(=O)[C@H](Cc1ccc(O)cc1)NC(=O)[C@@H]1CC=CC[C@H](N)C(=O)N[C@@H](CCCNC(N)=O)C(=O)N[C@@H](CCCNC(N)=O)C(=O)N1)C(=O)O [compound 148, c[G(All)citrulline-citrullineG (All)]YL] (H-[AllylGly][Cit][Cit][AllylGly]YL-OH; staple 1-4) | > 100000 nM | 7900 nM | 13 |  | 
15 | COc1ccc(C[C@H](NC(=O)[C@@H]2CC=CC[C@H](N)C(=O)N[C@@H](CCCCN)C(=O)N[C@@H](CCCCN)C(=O)N2)C(=O)N[C@@H](CC(C)C)C(=O)O)cc1 [compound 75, c[G(All)KKG(All)]Y(OMe)L] (H-[AllylGly]KK[AllylGly]Y(Me)L-OH; staple 1-4) | > 100000 nM | 86.3 nM | >1159 |  | 
16 | CC(C)C[C@H](NC(=O)[C@H](Cc1ccc(O)cc1)NC(=O)[C@@H]1CCCC[C@H](N)C(=O)N[C@@H](CCCCN)C(=O)N[C@@H](CCCCN)C(=O)N1)C(=O)O [compound 47, Dihydro-c[G(All)KKG(All)]YL] | > 100000 nM | 94 nM | >1064 |  | 
17 | CC(C)C[C@H](NC(=O)[C@H](Cc1ccc(O)cc1)NC(=O)[C@@H]1CC=CC[C@H](N)C(=O)N[C@@H](CN)C(=O)N[C@@H](CCCCN)C(=O)N1)C(=O)O [compound 81, c[G(All)DapKG(All)]YL] (H-[AllylGly][Dap]K[AllylGly]YL-OH; staple 1-4) | > 100000 nM | 180 nM | >557.2 |  | 
18 | NCCCC[C@@H]1NC(=O)[C@H](CCCCN)NC(=O)[C@@H](N)CC=CC[C@@H](C(=O)N[C@@H](Cc2ccc(O)cc2)C(=O)N[C@@H](CC2CCCCC2)C(=O)O)NC1=O [compound 31, c[G(All)KKG(All)]YA(Ch)] (H-[AllylGly]KK[AllylGly]Y[Cha]-OH; staple 1-4) | > 100000 nM | 8.67 nM | >11534 |  | 
